In patent US20160081312A1, “MODEL OF ALZHEIMER'S DISEASE” (priority 2013, published 2016):

B1: IL1-Ra: Rat recombinant IL-1 receptor antagonist, R&D systems (protein, UniProt P25086 27-178, looked up)
Interleukin-1 receptor …: HPAGKRPCKMQAFRIWDTNQKTFYLRNNQLIAGYLQGPNTKLEEKIDMVPIDFRNVFLGIHGGKLCLSCVKSGDDTKLQLEEVNITDLNKNKEEDKRFTFIRSETGPTTSFESLACPGWFLCTTLEADHPVSLTNTPKEPCTVTKFYFQEDQ

Columns and labels:
[1] = test system: Aβ; test: Aβ level in cultured rat neurons and astrocytes; format: cell-based, wistar rat; conditions: memantine 5 μM, donepezil 10 μM, docosahexaenoic acid 10 μM; for effect on levels of Aβ in the cellular model of AD: Vitamin E 10 μM; for Fold reduction in Aβ: metal mixture-induced, rat astrocytes and neurons, α-tocopherol 10 μM
Experimental: (§1) The pregnant wistar rats were sacrificed by cervical dislocation and the embryos were removed on the 16th day of gestation. The embryonic brain tissues were mechanically dissociated into individual cells in dissection media containing Glucose (1M), sucrose (1 M), HEPES Buffer (1M) and Hank's salt (1×). The resulting cells were centrifuged (1,500 rpm, 5 min), resuspended in NEUROBASAL medium containing B-27 supplement (Invitrogen, Carlsbad, Calif.), L-glutamine (0.5 mM), penicillin (100 U/ml) and streptomycin (100 μg/ml) and plated into 60 mm dishes. The culture media was changed every 2 days.
(§2) The astrocytes from rat brain were isolated and cultured. Briefly, prefrontal cortices of 1-day-old wistar rats were dissected out and digested with trypsin for 10 min at 37° C. A single cell suspension was obtained by triturating, and the cells were seeded onto poly-L-lysine (100 μg/ml)-coated plates. The cultures were maintained in DMEM/F12 with 10% heat-inactivated fetal bovine serum, 100 U/ml penicillin, and […] streptomycin. The confluent cells were rinsed twice with serum-free media and then detached with 0.25% trypsin with ethylenediaminetetraacetic acid and sub-cultured.
(§3) The astrocytes and neurons were grown to 80% confluence, pre-incubated in reduced serum (0.5% fetal bovine serum [FBS]) medium for 2 h, and then treated with a mixture of As, Cd, and Pb (Group 1 and 2, Table 2 for neurons, and Table 3 for astrocytes) in the form of NaAsO2, CdCl2 and Pb(C2H3O2)2, respectively in Milli Q water for 16 h, and incubated in a humidified tissue culture incubator at 37° C. with 5% CO2-95% air. The NaAsO2, and CdCl2 readily dissolved in water, while Pb(C2H3O2)2 was dissolved by adding 0.043% acetic acid in water. To identify the synergistic nature, the astrocytes and neurons were treated with metal mixture as well as individual metals (Group 1-5 of Table 2 for neurons, and Table 3 for astrocytes).
(§4) The astrocytes and neurons were treated, washed with PBS and suspended in 100 μl of CelLytic™ MT Cell Lysis Reagent protease inhibitor cocktail (a mixture of 4-(2-aminoethyl)benzenesulfonyl fluoride, pepstatinA, E-64, bestatin, leupeptin, and aprotinin)] and kept on ice for 20 min. The cells were homogenized using a Teflon homogenizer and centrifuged at 15,000 rpm for 30 min at 4° C., and the supernatant was collected. SDS-PAGE and western blotting was done with APP (1:1000), Aβ-40 (1:1000), Aβ-42 (1:1000), IL-1α(1:1000), IL-1β (1:1000) and IL-1R1. […] The samples were detected by chemiluminescence with super signal west femto max substrate. Relative expression of each protein was determined by densitometric quantification of blots using VersaDoc Gel Imaging System (BioRad, Hercules, CF). […]

[2] = test system: Aβ-42; test: Aβ-42 level in rat brain cortex and hippocampus, western blotting; format: in vivo, wistar rat
Experimental: (§5) All animal-handling procedures were carried out in accordance with the current regulations of the Indian Institute of Toxicology Research Animal Ethics Committee, and with its prior approval for using the animals. The pregnant female wistar rats were housed in a 12-h […] cycle environment with ad libitum diet and water. The rats were divided into six groups (n=30 per group), gavage-treated with the metal mixture (Table 1). The metal mixture treatment was at two concentrations (1× and 10×; Groups 1-3, Table 1) for dose-dependent study. To identify the synergistic nature, the animals were treated in mixture as well as individually with the metals (Group 1-6 of Table 1). The heavy metals were As, Cd and Pb, fed in the form of NaAsO2, CdCl2 and Pb(C2H3O2)2, respectively, in Milli Q water. The NaAsO2, and CdCl2 readily dissolved in water, while Pb(C2H3O2)2 was dissolved by adding 0.043% acetic acid in water. The dams (pregnant rats and lactating mother rats) were daily treated with the metals in water from gestation day 5 (G-05) until the pups weaned (postnatal day-21, P-21). From P-22, the postnatal rats were directly treated with the metals until P-90. The tissues were collected at P-24, P-60 or P-90. The male rats were selected for the study, and rats from separate litters served as independent subjects.
(§6) Tissues of the cerebral cortex and hippocampus from five to seven postnatal wistar rats were harvested, snap-frozen in liquid nitrogen, and stored at −80° C. until further investigation. SDS-PAGE and western blotting was performed with APP (1:1000), Aβ-40 (1:1000), Aβ-42 (1:1000), APP-CTF-β (1:1000), presenilin (1:1000), IL-1α (1:1000), IL-1β (1:1000) and IL-1R1 (1:1000), RAGE (1:1000) and pGP (1:1000). […] The samples were detected by chemiluminescence with super signal west femto max substrate. Relative expression of each protein was determined by densitometric quantification of blots using VersaDoc Gel Imaging System (BioRad, Hercules, CF). […]

[3] = test system: APP; test: APP level in rat brain cortex and hippocampus, western blotting; format: in vivo, wistar rat
Experimental: as §5, §6

[4] = test system: Aβ-40; test: Aβ1-40 level in rat cortex and hippocampus, ELISA; format: in vivo, wistar rat
Experimental: as §5

[5] = test system: APP; test: APP level in cultured rat neurons and astrocytes; format: cell-based, wistar rat; conditions: memantine 5 μM, donepezil 10 μM, docosahexaenoic acid 10 μM; for effect on levels of APP in the cellular model of AD: Vitamin E 10 μM; for Fold reduction in APP: metal mixture-induced, rat astrocytes and neurons, α-tocopherol 10 μM
Experimental: as §1, §2, §3, §4

[6] = memantine 10 mg/kg body weight, donepezil 1.5 mg/kg body weight
[7] = metal mixture-induced, rat brain, two week treatment, memantine 10 mg/kg, donepezil 1.5 mg/kg with 10X-MM in P-90 rats
[8] = hippocampal insertion, once at P-90 in 10X-MM-treated rats, dissected after 10 days

| Molecule | effect on levels of Aβ in the cellular model of AD [1] | Fold reduction in Aβ [1] [fold] | effect on levels of APP in the cellular model of AD [5] | Fold reduction in APP [5] [fold] | also measured |
| --- | --- | --- | --- | --- | --- |
| CC12CC3CC(C)(C1)CC(N)(C3)C2 [Memantine] | suppressed | 1.4 ± 0.052 | suppressed | 1.3 ± 0.0392 | effect on Aβ1-42 in the non-transgenic wistar rat model of AD [2, 6]: suppress; fold reduction in Aβ-42 [2, 7]: 2.42 ± 0.0143 fold; effect on APP in the non-transgenic wistar rat model of AD [3, 6]: suppress; Fold reduction in APP [3, 7]: 1.69 ± 0.0510 fold; effect on Aβ1-40 in the non-transgenic wistar rat model of AD [4, 6]: suppress; fold reduction in Aβ-40 [4, 7]: 2.54 ± 0.0099 fold |
| Cc1c(C)c2c(c(C)c1O)CC[C@@](C)(CCC[C@H](C)CCC[C@H](C)CCCC(C)C)O2 [α-tocopherol] | suppressed | – | suppressed | – | – |
| CC/C=C\C/C=C\C/C=C\C/C=C\C/C=C\C/C=C\CCC(=O)O [Docosahexaenoic acid] | – | 2.3 ± 0.0853 | – | 1.25 ± 0.0265 | – |
| B1 | – | – | – | – | effect on Aβ1-42 in As, Cd and Pb-mixture treated rat brain [2, 8]: suppressed; effect on APP in As, Cd and Pb-mixture treated rat brain [3, 8]: suppressed |
